Measured values reported in PMC7734574 (International Journal of Molecular Sciences, 2020).
Read-outs that look alike come from different tables or passages of the source.

How the values were obtained:
[1] = thermal back isomerization (half-life of the metastable form) by UV/VIS spectroscopy; format: physicochemical; details: 37 °C, DMSO (UV/VIS)
Protocol: For the meta-linked derivative 3 (Figure 6a), a maximum shift of the PSS toward the Z-isomer can be achieved by irradiation at 365 nm. By NMR spectroscopy, a Z-isomer content of 83% was determined in the PSS. […] Back switching to the E-isomers E-3 and E-4 is possible by irradiation at 435 nm (3) or 470 nm (4), respectively. Furthermore, half-lives of the azobenzene derivatives were determined by UV/VIS spectroscopy at 37 °C in DMSO.
(§1) UV/VIS spectra were measured using a Varian Cary® 50 Scan UV/VIS photometer from Agilent (Waldbronn, Germany) equipped with a Varian Cary PCB 150 thermostat either at 25 °C or 37 °C. […] The fitting of thermal relaxations was done with GraphPad Prism® (v.7.03, GraphPad Software, San Diego, CA, USA).

[2] = isomer ratio of the photostationary state by NMR spectroscopy; format: physicochemical
From the text: (§2) In order to determine the isomer ratios of the PSS as well as to identify the optimal excitation wavelengths for the E/Z isomerizations, compounds 3–7 were characterized by UV/VIS and NMR spectroscopy. Due to their poor water solubility along with the low molar absorption coefficients of diazocines, all compounds were initially analyzed in DMSO.

[3] = biological target: T1, VEGFR-2 (purified kinase domain, KDR active) (Homo sapiens, UniProt P35968); experiment: luminescence-based ADP-Glo kinase assay under controlled light conditions; format: biochemical; parameters: VEGFR-2 (purified kinase domain, KDR active, Promega); purchased Promega
[4] = photoswitching followed by UV/VIS spectroscopy; format: physicochemical; details: for photoconversion on back switching to the E-isomer: DMSO
From the text: as §2
By irradiation at 530 nm, the diazocine-based compounds 5–7 can be switched back quantitatively to the Z-isomer. Since the associated spectra completely overlap with the spectra of the pure Z-isomers, they are not shown for reasons of clarity. To check the reversibility of the photoswitching, long-term stability measurements with 20 switching cycles were performed. For this purpose, the compounds were irradiated alternately for 20 s at 405 nm and 530 nm, respectively. After each irradiation, an UV/VIS spectrum was recorded.
as §1

[5] = biological target: T1, VEGFR-2 (purified kinase domain, KDR active); details: cited from earlier work
[6] = axitinib, DMSO (NMR), cited from earlier work
[7] = tested on: lysates of human umbilical vein endothelial cells (HUVECs); experiment: kinome activity profiling (PamGene) of treated cell lysate; format: biochemical; details: 20 µM, irradiated at 405 nm, HUVEC lysate, 10% DMSO
[8] = DMSO (NMR), irradiation at 405 nm
[9] = PSS after irradiation at 405 nm, 10% DMSO
[10] = E-isomer, in the dark (unirradiated), 1% DMSO
[11] = both irradiated and unirradiated compounds
[12] = Z-isomer, in the dark (unirradiated), 10% DMSO
[13] = after irradiation at 405 nm, 10% DMSO
[14] = DMSO, NMR, irradiation at 365 nm

T1 sequence (P35968 834-1162 limits assumed): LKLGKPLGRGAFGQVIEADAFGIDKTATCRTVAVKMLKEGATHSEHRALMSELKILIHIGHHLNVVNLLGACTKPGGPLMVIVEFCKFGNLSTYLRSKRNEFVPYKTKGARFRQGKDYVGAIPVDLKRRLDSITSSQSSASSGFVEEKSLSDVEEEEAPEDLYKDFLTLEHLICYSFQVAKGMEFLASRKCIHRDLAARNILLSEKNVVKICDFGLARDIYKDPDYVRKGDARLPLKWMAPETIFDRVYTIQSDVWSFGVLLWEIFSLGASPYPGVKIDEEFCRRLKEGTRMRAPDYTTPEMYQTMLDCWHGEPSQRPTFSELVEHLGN

**Q.** Which results are given for `CNC(=O)c1ccccc1Sc1ccc2c(-c3ccc4c(c3)/N=N\c3ccccc3CC4)n[nH]c2c1` [Compound 7, (Z)‐2‐((3‐(11,12‐dihydrodibenzo[c,g][1,2]diazocin‐3‐yl)‐1H‐indazol‐6‐yl)thio)‐N‐methylbenzamide]?
**A.** k of exponential fit of thermal back isomerization [1]: 0.4711; PSS (E/Z%) [2, 8]: 60/40; E-isomer content in the PSS ([2]; DMSO, irradiation at 405 nm): 60%; IC50 [3, 9]: 493 nM; residual activity ([3]; Z-isomer in the dark, 10% DMSO): ≥ 37%

**Q.** With `CNC(=O)c1ccccc1Sc1ccc2c(/N=N/c3ccccn3)n[nH]c2c1` [Compound 2, (E)‐N‐methyl‐2‐((3‐(pyridin‐2‐yldiazenyl)‐1H‐indazol‐6‐yl)thio)benzamide] as the molecule, how does the “spectral change upon irradiation” value ([4]; 20 µM in DMSO and water with 10 % DMSO, 365, 385, 405, 420 and 470 nm) read?
**A.** The value was “No spectral change”.

**Q.** And the IC50 [3, 10]?
**A.** Its IC50 is 415 nM.

**Q.** For `CNC(=O)c1ccccc1Sc1ccc2c(-c3ccc(/N=N/c4ccccc4)cc3)n[nH]c2c1` [Compound 4, (E)‐N‐methyl‐2‐((3‐(4‐(phenyldiazenyl)phenyl)‐1H‐indazol‐6‐yl)thio) benzamide], which “photoconversion on back switching to the E-isomer” value ([4]; irradiation at 470 nm) is on record?
**A.** Its value is “almost quantitative”.

**Q.** What about the “k of exponential fit of thermal back isomerization” value [1] of the same molecule?
**A.** The value was 0.121.

**Q.** What about the “PSS (E/Z%)” value ([2]; DMSO (NMR), irradiation at 385 nm) of the same molecule?
**A.** The value was 20/80.

**Q.** What about the “residual activity (plateau)” value ([3]; E-isomer in the dark) of the same molecule?
**A.** Its value is 43%.

**Q.** And the IC50 [3, 10]?
**A.** Its IC50 is 1020 nM.

**Q.** And the IC50 ([3]; PSS after irradiation at 385 nm, 1% DMSO)?
**A.** Its IC50 is 1440 nM.

**Q.** And the “residual activity (plateau)” value ([3]; after irradiation at 385 nm)?
**A.** Its value is 13%.

**Q.** What about the IC50 [3, 11] of the same molecule?
**A.** Its IC50 is ~1000 nM.

**Q.** What does the source list for `CNC(=O)c1ccccc1Sc1ccc2c(/C=C/c3ccccn3)n[nH]c2c1` [Compound 1, Axitinib]?
**A.** difference in biological activities of Z-axitinib and E-axitinib [5]: 43 fold; PSS (E/Z%) ([6]; 365 nm (E → Z)): 51/49; PSS (E/Z%) ([6]; 385 nm (Z → E)): 88/12

**Q.** What does the source list for `CNC(=O)c1ccccc1Sc1ccc2c(-c3ccc4c(c3)CSc3ccccc3/N=N\4)n[nH]c2c1` [Compound 6, (Z)‐2‐((3‐(12H‐dibenzo[b,f][1,4,5]thiadiazocin‐2‐yl)‐1H‐indazol‐6‐yl)thio)‐N‐methylbenzamide]?
**A.** k of exponential fit of thermal back isomerization [1]: 0.1853; PSS (E/Z%) [2, 8]: 25/75; E-isomer content in the PSS ([2]; DMSO, irradiation at 405 nm): 25%; IC50 [3, 9]: 251 nM; IC50 [3, 12]: > 10000 nM; residual activity (plateau) [3, 13]: 10%

**Q.** What does the source list for `CNC(=O)c1ccccc1Sc1ccc2c(-c3ccc4c(c3)/N=N\c3ccccc3SC4)n[nH]c2c1` [Compound 5, (Z)‐2‐((3‐(12H‐dibenzo[b,f][1,4,5]thiadiazocin‐3‐yl)‐1H‐indazol‐6‐yl)thio)‐N‐methylbenzamide]?
**A.** kinase activities (phosphorylation degree of substrate peptides) compared to DMSO [7]: moderate decrease of kinase activities; k of exponential fit of thermal back isomerization [1]: 0.09514; PSS (E/Z%) [2, 8]: 47/53; IC50 [3, 9]: 214 nM; IC50 [3, 12]: > 10000 nM; residual activity (plateau) [3, 13]: 6%

**Q.** With `CNC(=O)c1ccccc1Sc1ccc2c(-c3cccc(/N=N/c4ccccc4)c3)n[nH]c2c1` [Compound 3, (E)‐N‐methyl‐2‐((3‐(3‐(phenyldiazenyl)phenyl)‐1H‐indazol‐6‐yl)thio) benzamide] as the molecule, how does the “photoconversion on back switching to the E-isomer” value ([4]; irradiation at 435 nm) read?
**A.** Its value is “almost quantitative”.

**Q.** And the “k of exponential fit of thermal back isomerization” value [1]?
**A.** Its value is 0.01608.

**Q.** What about the “PSS (E/Z%)” value [2, 14] of the same molecule?
**A.** The value was 17/83.

**Q.** What about the “Z-isomer content in the PSS” value [2, 14] of the same molecule?
**A.** The value was 83%.

**Q.** And the “residual activity (plateau)” value ([3]; E-isomer in the dark)?
**A.** The value was 33%.

**Q.** And the IC50 [3, 10]?
**A.** Its IC50 is 1080 nM.

**Q.** What about the IC50 ([3]; PSS after irradiation at 365 nm, 1% DMSO) of the same molecule?
**A.** The IC50 was 1290 nM.

**Q.** What about the “residual activity (plateau)” value ([3]; after irradiation at 365 nm) of the same molecule?
**A.** The value was 5%.

**Q.** And the IC50 [3, 11]?
**A.** The IC50 was ~1000 nM.
